From patent US6593306B1, “Methods for modulation and inhibition of telomerase” (Board of Regents, The University of Texas Systems, priority 1995, dated 2003)
Entries after “also recorded” stand apart in the source; their conditions may differ.

What was measured:
[1] = biological target: T1, human 293 cell telomerase (Homo sapiens, UniProt O14746); test: Conventional telomerase assay (32P-dGTP as radiolabel substrate); assay type: biochemical; settings: for Inhibition of 293 Telomerase, Conventional Assay *dGTP: up to 2 mM
T1 construct: with 20 μl of S100 enzyme extract; endogenous in cells; host or cells: 293 cells (transformed human embryonic kidney), S100 extract
Description: Telomerase was prepared from transformed human embryonic kidney 293 cell line. Human embryonic kidney 293 cells were grown in Joklik's modified MEM niedium (Sigma, St Louis, Mo.) supplemented with 5% fetal bovine serum at 37° C. in a humidified atmosphere with 5% CO2. The cells were subcultured at 1-2×10^5 cells/ml twice a week. When the cells grew to approximately 1×10^6 cells/ml, the cells (˜2×10^9 cells) were centrifuged and transferred into polypropylene centrifuge (50 ml) tubes and kept on ice. The cells were then centrifuged in a (Beckman GS-6R) centrifuge at 1200 RPM for 10 minutes at 4° C., and resuspended in PBS. The washed cells were resuspended in 15 ml Hypobuffer Mix (10 mM HEPES, pH 8.0, 3 mM KCl, 1 mM MgCl2, 1 mM dithiothreitol, 1 μM leupeptin, 0.1 mM PMSF, 10 μM pepstatin, 0.83 μg/ml chymostatin, 0.83 μg/ml antipain, and 43.2 units/ml RNase Guard) and centrifuged. The cell pellets were resuspended in 0.75×volumes Hypobuffer [Hypobuffer Mix+40 units/ml RNase Guard (Pharmacia, N.J.) to allow the cells to swell. The cell suspensions were homogenized to allow the telomerase to “leak” into the cytosolic fraction. The lysate was then poured into new, autoclaved, 3 ml polyallomer ultracentrifuge tubes and centrifuged at 100,000×g for 1 hour at 4° C. A top lipid layer was carefully removed and discarded, and the supernatant was collected. 1/50 of the volume of 5 M NaCl was added to the clear supernatant fluid to achieve a final concentration of 0.1 M. Sterile glycerol was added until the final glycerol concentration was 20%. The enzyme solution was aliquoted into Eppendorf tubes and quickly frozen in liquid nitrogen and stored at −70° C.
The assay is based on the ability of the telomerase enzyme in the S100 fractions to recognize an 18-base DNA primer with the DNA sequence (TTAGGG)3. DNA polymerization initiates from the 3′-OH group of the oligonucleotide. By reading from its complementary internal RNA template, telomerase adds a repeated set of 5′-TTAGGG-3′ to the original 18-base primer. Non-synchronous “starts” and “terminations” among the different enzyme complexes result in a degenerative set of different length DNA primers occurring in 6-base increments. Incorporation of [α-^32P]dGTP at the guanine positions of the 5′-TTAGGG-3′ sequence allows the newly synthesized DNA fragments to be visualized by autoradiography. The resulting image forms the characteristic “ladder” structure that is used to identify telomerase activity. The images are scanned using a phosphoimager or laser densitometer (Molecular Dynamics, Sunnyvale, Calif.). Comparisons of the total volumes under the corresponding peaks are used to quantitate the total amount of [α-^32P] incorporated in the primer extension reaction.
The telomerase assay was initiated by mixing 20 μl of 2×reaction mix (100 mM Tris-OAc, pH 8.5, 100 mM KOAc, 10 mM β-mercaptoethanol, 2 mM spermidine, 2 mM MgCl2, 2 mM dATP, 2 mM dTTP, 2 μM oligo primer, potential inhibitors of interest at the appropriate concentration, and 50 μCi [α^32-P]dGTP) with 20 μl of S100 enzyme extract. The reaction mixture was then incubated at 30° C. for 1 hour. The reaction was stopped by incubating sequentially with 50 μl of the stop solution (10 mM Tris pH 7.5, 20 mM EDTA, 0.1 mg/ml RNase A) and 50 μl of deproteinase solution (10 mM Tris pH 7.5, 0.5% SDS, 0.3 mg/ml Proteinase K). The mixture was extracted with 50% phenol/50% chloroform (v/v). The DNA was then precipitated by adding 2.5×volumes of cold EtOH and letting it stand overnight at −70° C. The DNAs were separated on an 8% polyacrylamide/7M urea denaturing gel at 1600 V for 1.5 hours. The gel was dried and exposed to Kodak XAR-5 film to gel in −70° C. Typical autoradiographic exposures required 3-14 days.

[2] = biological target: T2, human telomerase (Homo sapiens, UniProt O14746); test: Cell-free telomerase inhibition, conventional or modified assay not stated; assay type: biochemical
T2 construct: telomerase in S100 extracts of transformed human fetal kidney tumor 293 cells (a processive telomerase); endogenous in cells; host or cells: human cells, (S100 extract)
Description: Selected nucleoside triphosphates were tested in one or both of the “conventional” or “modified” telomerase assays described in Methods using the human processive and the CHO non-processive telomerases. Initially, three chain-terminators were selected: 2′,3′-dideoxythymidine triphosphate (ddTTP), 3′-fluoro-2′,3′-dideoxythymidine triphosphate (F-ddTTP), and 3′-azido-2′-, 3′-dideoxythymidine triphosphate (AZ-ddTTP) as prototype agents to investigate whether they could inhibit telomerase activity. The three compounds are dTTP analogs without a 3′-OH group for subsequent chain elongation. They may either incorporate into the telomere sequence and terminate further chain elongation or compete directly with dTTP for the substrate binding site in the telomerase reaction. In either case, telomerase activity is inhibited.

[3] = tested on: human colon carcinoma HT29 cells; test: Growth inhibition (MTT), HT29 cells; assay type: cell-based; settings: HT-29, 144 h, 6 days
Description: (§1) Exponentially growing cells (1-2×10^3 cells, unless specified otherwise) in 0.1 ml medium were seeded on day 0 in a 96-well microtiter plate. On day 1, 0.1 ml aliquots of medium containing graded concentrations of test analogs were added in duplicate to the cell plates. After incubation at 37° C. in a humidified incubator for 6 days, the plates were centrifuged briefly and 100 μl of the growth medium was removed. Cell cultures were incubated with 50 μl of 3-(4,5-dimethylthiazol-2-yl)-2,5-diphenyl-tetrazolium bromide, (MTT) at a concentration of 1 mg/ml in Dulbecco's phosphate buffered saline (PBS)) for 4 hr at 37° C. The resulting purple formazan precipitate was solubilized with 200 μl of 0.04 N HCl in isopropyl alcohol. Absorbance was monitored in a BioRad Model 3550 Microplate Reader at a test wavelength of 570 nm and a reference wavelength of 630 nm. The absorbance was transferred to a PC 486 computer. The IC50 values were determined by a computer program (EZ-ED50) that fits all the data to the following four-parameter logistic equation: [formula]
(§2) where Amax is the absorbance of control cells, Amin is the absorbance of cells in the presence of highest agent concentration, Y is the observed absorbance, X is the agent concentration, IC50 is the concentration of agent that inhibits the cell growth by 50% of control cells (based on the absorbance) and n is the slope of the curve.
(§3) This is due to the extracellular dephosphorylation of the mono-, di-, or triphosphates by […] or 5′-nucleotidase back to the nucleoside. With this in mind, the inventors used only nucleosides rather than nucleoside triphosphates in these studies. Cultured tumor cells were incubated with selected nucleosides at graded concentrations for 6 days and the growth inhibition was determined by the standard MTT assay.

[4] = tested on: transformed human embryonic kidney 293 cells; test: Growth inhibition (MTT), 293 cells; assay type: cell-based; settings: HEK293, 144 h, 6 days
Description: as §1, §2, §3

T1 sequence (O14746 whole entry): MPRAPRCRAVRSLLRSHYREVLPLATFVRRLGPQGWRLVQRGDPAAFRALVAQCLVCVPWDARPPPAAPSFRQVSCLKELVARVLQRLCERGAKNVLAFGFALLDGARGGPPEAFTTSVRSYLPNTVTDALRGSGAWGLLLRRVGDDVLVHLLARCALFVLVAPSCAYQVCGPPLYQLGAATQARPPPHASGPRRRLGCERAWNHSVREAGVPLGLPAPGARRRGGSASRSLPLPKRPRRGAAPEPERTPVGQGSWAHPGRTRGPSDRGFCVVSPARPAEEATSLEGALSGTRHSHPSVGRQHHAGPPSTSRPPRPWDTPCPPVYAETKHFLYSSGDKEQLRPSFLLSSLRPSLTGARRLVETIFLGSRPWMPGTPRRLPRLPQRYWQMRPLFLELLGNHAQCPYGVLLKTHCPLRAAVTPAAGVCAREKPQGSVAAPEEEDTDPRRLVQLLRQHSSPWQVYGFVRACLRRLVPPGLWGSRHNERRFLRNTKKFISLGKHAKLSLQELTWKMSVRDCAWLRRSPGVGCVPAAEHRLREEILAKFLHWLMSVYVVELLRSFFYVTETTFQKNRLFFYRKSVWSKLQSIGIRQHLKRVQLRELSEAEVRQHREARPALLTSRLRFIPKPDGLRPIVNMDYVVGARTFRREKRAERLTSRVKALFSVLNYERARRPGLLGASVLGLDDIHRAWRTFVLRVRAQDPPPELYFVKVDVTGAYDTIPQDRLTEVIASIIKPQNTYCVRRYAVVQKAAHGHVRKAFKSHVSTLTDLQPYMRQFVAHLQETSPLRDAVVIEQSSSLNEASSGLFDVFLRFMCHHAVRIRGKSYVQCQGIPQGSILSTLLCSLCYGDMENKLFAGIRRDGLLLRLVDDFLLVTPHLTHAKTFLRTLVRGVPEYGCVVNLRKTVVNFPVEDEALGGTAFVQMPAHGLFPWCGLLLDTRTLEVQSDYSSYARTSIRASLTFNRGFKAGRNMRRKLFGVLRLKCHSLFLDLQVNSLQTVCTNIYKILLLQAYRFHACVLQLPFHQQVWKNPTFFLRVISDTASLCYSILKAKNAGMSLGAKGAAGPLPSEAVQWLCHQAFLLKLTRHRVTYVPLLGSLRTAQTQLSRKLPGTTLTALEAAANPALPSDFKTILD
T1 sequence (O60832 whole entry partner): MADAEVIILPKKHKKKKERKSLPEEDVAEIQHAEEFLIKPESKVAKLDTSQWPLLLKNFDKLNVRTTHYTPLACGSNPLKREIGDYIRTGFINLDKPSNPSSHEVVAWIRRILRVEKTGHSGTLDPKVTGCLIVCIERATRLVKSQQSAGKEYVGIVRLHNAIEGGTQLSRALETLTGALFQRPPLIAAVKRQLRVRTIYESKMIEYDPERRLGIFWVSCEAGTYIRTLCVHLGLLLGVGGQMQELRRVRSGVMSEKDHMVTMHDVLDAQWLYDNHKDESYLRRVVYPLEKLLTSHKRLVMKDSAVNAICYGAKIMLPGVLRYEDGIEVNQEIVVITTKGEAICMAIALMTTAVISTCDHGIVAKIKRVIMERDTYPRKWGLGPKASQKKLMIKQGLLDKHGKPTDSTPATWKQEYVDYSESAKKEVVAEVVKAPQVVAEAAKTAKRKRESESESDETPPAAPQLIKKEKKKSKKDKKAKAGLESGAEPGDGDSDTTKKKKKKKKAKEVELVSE
T1 sequence (Q9NPE3 whole entry partner): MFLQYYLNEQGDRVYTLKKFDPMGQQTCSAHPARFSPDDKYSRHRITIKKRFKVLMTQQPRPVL
T1 sequence (Q9NX24 whole entry partner): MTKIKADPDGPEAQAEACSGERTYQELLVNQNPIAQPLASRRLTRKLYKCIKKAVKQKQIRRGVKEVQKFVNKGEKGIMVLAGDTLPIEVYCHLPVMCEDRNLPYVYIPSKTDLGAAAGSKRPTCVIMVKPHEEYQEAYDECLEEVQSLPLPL
T1 sequence (Q9NY12 whole entry partner): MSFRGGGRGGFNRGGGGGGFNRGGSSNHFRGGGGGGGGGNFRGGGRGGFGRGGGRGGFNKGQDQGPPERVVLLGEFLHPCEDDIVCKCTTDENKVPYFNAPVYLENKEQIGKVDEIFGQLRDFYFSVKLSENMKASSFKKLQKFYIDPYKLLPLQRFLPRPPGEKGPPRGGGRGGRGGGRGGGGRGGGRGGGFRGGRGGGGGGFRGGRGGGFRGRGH
T2 sequence (O14746 whole entry): as the sequence (O14746 whole entry) above
T2 sequence (O60832 whole entry partner): as the sequence (O60832 whole entry partner) above
T2 sequence (Q9NPE3 whole entry partner): as the sequence (Q9NPE3 whole entry partner) above
T2 sequence (Q9NX24 whole entry partner): as the sequence (Q9NX24 whole entry partner) above
T2 sequence (Q9NY12 whole entry partner): as the sequence (Q9NY12 whole entry partner) above

IC50 [3] [µM] | Compound | IC50 [4] [µM] | also measured
78.8 | Nc1nc2c(c(I)cn2[C@H]2C[C@H](O)[C@@H](CO)O2)c(=O)[nH]1 [FS021, 7-Iodo-7-Deaza-2′-Deoxyguanosine] | 63.4 | 
196 | Cc1cn([C@H]2C[C@H](O)[C@@H](CO)O2)c2nc(N)[nH]c(=O)c12 [FS022, 7-Methyl-7-Deaza-2′-Deoxyguanosine] | 489 | 
99.6 | Cc1cn([C@H]2C[C@H](O)[C@@H](CO)O2)c2ncnc(N)c12 [FS024, 7-Methyl-7-Deaza-2′-Deoxyadenosine] | 109 | 
146 | Nc1ncnc2c1ccn2[C@H]1C[C@H](O)[C@@H](CO)O1 [NA024, 7-Deaza-2′-Deoxyadenosine] | 533 | 
102 | Nc1nc2c(ccn2[C@H]2C[C@H](O)[C@@H](CO)O2)c(=O)[nH]1 [NA025, 7-Deaza-2′-Deoxyguanosine] | 130 | 
310 | Cn1c(N)nc2c(ccn2[C@H]2C[C@H](O)[C@@H](CO)O2)c1=S [NA027, 1-Methyl-6-Thio-7-Deaza-2′-Deoxyguanosine] | 161 | 

The remaining lines, values behind:

Compound | IC50 [3] [µM] | IC50 [4] [µM] | also measured
5-Allylamino-2′-Deoxyuridine-5′-Triphosphate [NA021] |  |  | % of Control ([1]; 0.125 mM): 51%; % of Control ([1]; 0.25 mM): 70%; % of Control ([1]; 0.5 mM): 43%; % of Control ([1]; 1.0 mM): 33%; % of Control ([1]; 2.0 mM): 30%; % of Control ([1]; 10 mM (so in the source)): 100%; IC50 ([1]; 293 cell telomerase): ~500 µM; Inhibition of 293 Telomerase, Conventional Assay *dGTP [1]: concentration dependent inhibition; also recorded: the telomerase activity is weak)
Cc1cn([C@H]2C[C@H](O)[C@@H](COP(=O)(O)OP(=O)(O)OP(=O)(O)O)O2)c(=O)[nH]c1=S [4-thiothymidine triphosphate] |  |  | inhibition of human telomerase activity ([2]; 1 mM): completely
Nc1ncnc2c1c(I)cn2[C@H]1C[C@H](O)[C@@H](CO)O1 [FS004, 7-Iodo-7-Deaza-2′-Deoxyadenosine] | 1.88 | 0.319 | 
N#Cc1cn([C@H]2C[C@H](O)[C@@H](CO)O2)c2ncnc(N)c12 [FS005, 7-Cyano-7-Deaza-2′-Deoxyadenosine] | 51.2 | 18.2 | 
Nc1ncnc2c1c(I)nn2[C@H]1C[C@H](O)[C@@H](CO)O1 [FS015, 7-Iodo-7-Deaza-8-Aza-2′-Deoxyadenosine] | 8.09 | 1.88 | 
Nc1ncnc2c1c(Cl)cn2[C@H]1C[C@H](O)[C@@H](CO)O1 [FS017, 7-Chloro-7-Deaza-2′-Deoxyadenosine] | 15.6 | 3.32 | 
Nc1ncnc2c1c(Br)cn2[C@H]1C[C@H](O)[C@@H](CO)O1 [FS018, 7-Bromo-7-Deaza-2′-Deoxyadenosine] | 0.963 | 1.14 | 
Nc1nc2c(c(Cl)cn2[C@H]2C[C@H](O)[C@@H](CO)O2)c(=O)[nH]1 [FS019, 7-Chloro-7-Deaza-2′-Deoxyguanosine] | 109 | 237 | 
Nc1nc2c(c(Br)cn2[C@H]2C[C@H](O)[C@@H](CO)O2)c(=O)[nH]1 [FS020, 7-Bromo-7-Deaza-2′-Deoxyguanosine] | 170 | 180 | 
Cc1cn([C@H]2CC[C@@H](COP(=O)(O)OP(=O)(O)OP(=O)(O)O)O2)c(=O)[nH]c1=O [NA001, 2′,3′-Dideoxythymidine-5′-Triphosphate] |  |  | IC50 ([1]; 293 cells telomerase, competing dTTP 1-2 mM, inhibitor 0 to 2 mM): ~500 µM
Nc1nc2c(ncn2[C@@H]2O[C@H](COP(=O)(O)OP(=O)(O)CP(=O)(O)O)[C@@H](O)[C@H]2O)c(=O)[nH]1 [NA011, Guanosine-5′-β,γ-Methylene Triphosphate] |  |  | % of Control ([1]; 0.125 mM): 82%; % of Control ([1]; 0.25 mM): 63%; % of Control ([1]; 0.5 mM): 86%; % of Control ([1]; 1.0 mM): 70%; % of Control ([1]; 2.0 mM): 65%; Inhibition of 293 Telomerase, Conventional Assay *dGTP [1]: inactive; also recorded: No Inhibition (up to 2 mM)
Nc1nc2c(ncn2[C@H]2C[C@H](O)[C@@H](COP(=O)(O)OP(=O)(O)CP(=O)(O)O)O2)c(=O)[nH]1 [NA014, 2′-Deoxyguanosine-5′-β,γ-Methylene Triphosphate] |  |  | remaining activity at 125 µM ([1]; 0.125 mM, read-out: % of Control): 60%; remaining activity at 250 µM ([1]; 0.25 mM, read-out: % of Control): 38%; remaining activity at 500 µM ([1]; 0.5 mM, read-out: % of Control): 42%; remaining activity at 1000 µM ([1]; 1.0 mM, read-out: % of Control): 40%; remaining activity at 2000 µM ([1]; 2.0 mM, read-out: % of Control): 28%; IC50 ([1]; 293 cell telomerase): < 125 µM; IC50 ([2]; Summary values, assay variant not stated, read-out: IC50): 102 µM
Nc1nc2c(ncn2[C@H]2C[C@H](O)[C@@H](COP(O)(O)=S)O2)c(=O)[nH]1 [NA015, 2′-Deoxyguanosine-5′-Phosphorothioate] |  |  | Inhibition of 293 Telomerase, Conventional Assay *dGTP [1]: No Inhibition (up to 2 mM)
